Measurements: patent EP4722207A1, “OXOISOINDOLINYL-SUBSTITUTED TETRAHYDROPYRIMIDINEDIONE DERIVATIVE AND USE THEREOF” (Gluetacs Therapeutics (Shanghai) Co., Ltd., priority 2023, dated 2024)

Tests used:
Type in all cases: cell-based
IKZF1 = target: T1, IKZF1 (Homo sapiens, UniProt Q13422+Q96SW2); assay: Western-blot assay, substrate protein degradation in hPBMCs: IKZF1; conditions: for substrate protein remaining % IKZF1: 24 hours of compound treatment, 50 nM and 500 nM; for IKZF1 substrate protein remaining %: compounds at 50 nM and 500 nM, 24 hours
T1 construct: effects of the compounds of the present disclosure on the expression of target proteins in cells; endogenous in cells; host or cells: human PBMCs (hPBMCs)
T1 sequence (Q13422 whole entry): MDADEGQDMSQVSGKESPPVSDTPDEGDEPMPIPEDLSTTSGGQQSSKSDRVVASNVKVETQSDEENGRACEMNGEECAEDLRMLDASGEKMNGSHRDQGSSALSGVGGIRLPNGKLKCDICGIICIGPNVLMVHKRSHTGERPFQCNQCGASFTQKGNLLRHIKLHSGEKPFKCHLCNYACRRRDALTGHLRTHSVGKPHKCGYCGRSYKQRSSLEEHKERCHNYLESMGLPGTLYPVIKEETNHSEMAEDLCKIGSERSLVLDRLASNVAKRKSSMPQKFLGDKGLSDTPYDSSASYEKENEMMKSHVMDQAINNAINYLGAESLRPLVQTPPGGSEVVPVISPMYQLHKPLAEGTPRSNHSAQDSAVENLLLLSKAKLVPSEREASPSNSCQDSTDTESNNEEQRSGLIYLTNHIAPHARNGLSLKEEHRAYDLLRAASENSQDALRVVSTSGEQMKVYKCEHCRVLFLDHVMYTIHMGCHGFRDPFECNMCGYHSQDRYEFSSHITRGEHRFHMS
T1 sequence (Q96SW2 whole entry): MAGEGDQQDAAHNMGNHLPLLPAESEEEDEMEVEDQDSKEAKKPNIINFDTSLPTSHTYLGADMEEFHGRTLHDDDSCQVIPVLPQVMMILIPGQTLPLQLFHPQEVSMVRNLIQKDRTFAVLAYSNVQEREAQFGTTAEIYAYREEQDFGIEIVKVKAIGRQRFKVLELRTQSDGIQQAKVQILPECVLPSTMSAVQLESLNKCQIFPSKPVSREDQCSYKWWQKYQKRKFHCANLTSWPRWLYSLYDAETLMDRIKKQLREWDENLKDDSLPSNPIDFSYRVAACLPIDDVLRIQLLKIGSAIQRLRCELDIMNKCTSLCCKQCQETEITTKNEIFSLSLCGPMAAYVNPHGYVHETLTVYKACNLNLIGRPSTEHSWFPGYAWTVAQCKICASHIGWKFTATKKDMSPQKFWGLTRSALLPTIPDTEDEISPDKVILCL
T1 sequence (Q16531 whole entry partner): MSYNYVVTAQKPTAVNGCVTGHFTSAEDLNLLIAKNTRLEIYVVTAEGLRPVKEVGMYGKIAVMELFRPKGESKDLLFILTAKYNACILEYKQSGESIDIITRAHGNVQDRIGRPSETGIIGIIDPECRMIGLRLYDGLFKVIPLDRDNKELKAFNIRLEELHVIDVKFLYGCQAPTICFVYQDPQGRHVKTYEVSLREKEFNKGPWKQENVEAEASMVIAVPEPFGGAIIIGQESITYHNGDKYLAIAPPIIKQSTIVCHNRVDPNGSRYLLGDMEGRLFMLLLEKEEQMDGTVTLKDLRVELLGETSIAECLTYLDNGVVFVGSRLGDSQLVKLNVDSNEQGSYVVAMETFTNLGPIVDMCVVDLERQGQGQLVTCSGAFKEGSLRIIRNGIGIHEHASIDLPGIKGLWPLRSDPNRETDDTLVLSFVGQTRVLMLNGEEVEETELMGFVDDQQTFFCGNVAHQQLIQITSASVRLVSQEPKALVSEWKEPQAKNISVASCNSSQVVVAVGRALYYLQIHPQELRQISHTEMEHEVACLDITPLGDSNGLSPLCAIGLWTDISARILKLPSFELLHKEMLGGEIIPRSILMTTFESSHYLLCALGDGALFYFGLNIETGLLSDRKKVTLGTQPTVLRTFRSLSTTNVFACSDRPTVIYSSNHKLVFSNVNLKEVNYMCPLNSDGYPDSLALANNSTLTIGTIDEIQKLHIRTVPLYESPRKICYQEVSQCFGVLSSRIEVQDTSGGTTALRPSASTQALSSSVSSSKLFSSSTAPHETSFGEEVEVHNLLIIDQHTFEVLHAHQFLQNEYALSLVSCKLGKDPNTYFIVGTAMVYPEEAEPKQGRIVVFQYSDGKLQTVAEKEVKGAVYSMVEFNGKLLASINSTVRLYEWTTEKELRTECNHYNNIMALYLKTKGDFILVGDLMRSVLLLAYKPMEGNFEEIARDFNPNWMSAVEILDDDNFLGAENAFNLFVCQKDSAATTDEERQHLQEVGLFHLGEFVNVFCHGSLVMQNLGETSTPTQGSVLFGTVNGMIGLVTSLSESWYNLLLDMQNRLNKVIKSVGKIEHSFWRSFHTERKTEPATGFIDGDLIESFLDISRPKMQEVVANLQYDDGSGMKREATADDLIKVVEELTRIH

GSPT1 = target: T2, GSPT1 (Homo sapiens, UniProt P15170+Q96SW2); assay: Western-blot assay, substrate protein degradation in hPBMCs: GSPT1; conditions: for substrate protein remaining % GSPT1: 24 hours of compound treatment, 50 nM and 500 nM; for GSPT1 substrate protein remaining %: compounds at 50 nM and 500 nM, 24 hours
T2 construct: effects of the compounds of the present disclosure on the expression of target proteins in cells; endogenous in cells; host or cells: human PBMCs (hPBMCs)

CK1α = target: T3, CK1α (Homo sapiens, UniProt P48729+Q96SW2); assay: Western-blot assay, substrate protein degradation in hPBMCs: CK1α; conditions: for substrate protein remaining % CK1α: 24 hours of compound treatment, 50 nM and 500 nM; for CK1α substrate protein remaining %: compounds at 50 nM and 500 nM, 24 hours
T3 construct: effects of the compounds of the present disclosure on the expression of target proteins in cells; endogenous in cells; host or cells: human PBMCs (hPBMCs)
T3 sequence (P48729 whole entry): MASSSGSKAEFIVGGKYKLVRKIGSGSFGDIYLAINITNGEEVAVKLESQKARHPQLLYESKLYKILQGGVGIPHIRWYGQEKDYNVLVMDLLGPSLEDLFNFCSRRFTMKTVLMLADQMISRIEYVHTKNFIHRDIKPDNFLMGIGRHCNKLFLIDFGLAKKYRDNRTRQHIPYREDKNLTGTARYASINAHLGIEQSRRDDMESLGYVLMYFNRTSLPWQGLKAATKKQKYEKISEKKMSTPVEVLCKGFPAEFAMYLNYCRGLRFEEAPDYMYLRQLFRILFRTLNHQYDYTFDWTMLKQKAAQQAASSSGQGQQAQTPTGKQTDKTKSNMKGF
T3 sequence (Q96SW2 whole entry): as the sequence (Q96SW2 whole entry) above
T3 sequence (Q16531 whole entry partner): as the sequence (Q16531 whole entry partner) above

IKZF3 = target: T4, IKZF3 (Homo sapiens, UniProt Q96SW2+Q9UKT9); assay: Western-blot assay, substrate protein degradation in hPBMCs: IKZF3; conditions: for substrate protein remaining % IKZF3: 24 hours of compound treatment, 50 nM and 500 nM; for IKZF3 substrate protein remaining %: compounds at 50 nM and 500 nM, 24 hours
T4 construct: effects of the compounds of the present disclosure on the expression of target proteins in cells; endogenous in cells; host or cells: human PBMCs (hPBMCs)
T4 sequence (Q9UKT9 whole entry): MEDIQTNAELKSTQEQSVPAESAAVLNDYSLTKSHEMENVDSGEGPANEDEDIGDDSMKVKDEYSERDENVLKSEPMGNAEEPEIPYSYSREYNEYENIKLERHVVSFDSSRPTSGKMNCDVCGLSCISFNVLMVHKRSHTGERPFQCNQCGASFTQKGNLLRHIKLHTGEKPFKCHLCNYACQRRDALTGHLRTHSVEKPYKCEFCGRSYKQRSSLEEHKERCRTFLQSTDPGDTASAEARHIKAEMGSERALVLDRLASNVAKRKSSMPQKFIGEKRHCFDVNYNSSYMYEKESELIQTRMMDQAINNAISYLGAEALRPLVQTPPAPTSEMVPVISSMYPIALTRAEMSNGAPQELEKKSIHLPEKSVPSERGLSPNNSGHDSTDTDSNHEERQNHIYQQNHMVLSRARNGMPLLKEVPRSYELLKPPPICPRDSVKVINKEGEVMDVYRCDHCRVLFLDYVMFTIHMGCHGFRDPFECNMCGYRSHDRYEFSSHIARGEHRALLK
T4 sequence (Q96SW2 whole entry): as the sequence (Q96SW2 whole entry) above
T4 sequence (Q16531 whole entry partner): as the sequence (Q16531 whole entry partner) above

WEE1 = target: T5, WEE1 (Homo sapiens, UniProt P30291+Q96SW2); assay: Western-blot assay, substrate protein degradation in hPBMCs: WEE1; conditions: for substrate protein remaining % WEE1: 24 hours of compound treatment, 50 nM and 500 nM; for WEE1 substrate protein remaining %: compounds at 50 nM and 500 nM, 24 hours
T5 construct: effects of the compounds of the present disclosure on the expression of target proteins in cells; endogenous in cells; host or cells: human PBMCs (hPBMCs)
T5 sequence (P30291 whole entry): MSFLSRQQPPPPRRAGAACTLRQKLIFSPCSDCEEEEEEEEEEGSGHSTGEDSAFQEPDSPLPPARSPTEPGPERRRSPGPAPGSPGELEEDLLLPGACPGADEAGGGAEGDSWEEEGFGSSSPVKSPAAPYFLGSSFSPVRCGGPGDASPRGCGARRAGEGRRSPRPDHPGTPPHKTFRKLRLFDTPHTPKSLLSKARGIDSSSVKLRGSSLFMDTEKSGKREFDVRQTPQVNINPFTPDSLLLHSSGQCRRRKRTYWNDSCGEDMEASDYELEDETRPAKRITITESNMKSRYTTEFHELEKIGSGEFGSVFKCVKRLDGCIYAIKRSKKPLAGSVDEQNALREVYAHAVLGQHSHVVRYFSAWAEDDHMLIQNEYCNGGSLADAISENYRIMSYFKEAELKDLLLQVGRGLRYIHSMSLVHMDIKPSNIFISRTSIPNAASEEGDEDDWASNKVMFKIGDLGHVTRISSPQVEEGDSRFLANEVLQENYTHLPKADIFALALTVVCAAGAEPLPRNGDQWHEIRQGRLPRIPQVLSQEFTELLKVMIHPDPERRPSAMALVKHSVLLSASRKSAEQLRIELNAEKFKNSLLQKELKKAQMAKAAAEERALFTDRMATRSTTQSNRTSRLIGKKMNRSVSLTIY
T5 sequence (Q96SW2 whole entry): as the sequence (Q96SW2 whole entry) above
T5 sequence (Q16531 whole entry partner): as the sequence (Q16531 whole entry partner) above

IKZF2 = target: T6, IKZF2 (Homo sapiens, UniProt Q96SW2+Q9UKS7); assay: Western-blot assay, substrate protein degradation in hPBMCs: IKZF2; conditions: for substrate protein remaining % IKZF2: 24 hours of compound treatment, 50 nM and 500 nM; for IKZF2 substrate protein remaining %: compounds at 50 nM and 500 nM, 24 hours
T6 construct: effects of the compounds of the present disclosure on the expression of target proteins in cells; endogenous in cells; host or cells: human PBMCs (hPBMCs)
T6 sequence (Q9UKS7 whole entry): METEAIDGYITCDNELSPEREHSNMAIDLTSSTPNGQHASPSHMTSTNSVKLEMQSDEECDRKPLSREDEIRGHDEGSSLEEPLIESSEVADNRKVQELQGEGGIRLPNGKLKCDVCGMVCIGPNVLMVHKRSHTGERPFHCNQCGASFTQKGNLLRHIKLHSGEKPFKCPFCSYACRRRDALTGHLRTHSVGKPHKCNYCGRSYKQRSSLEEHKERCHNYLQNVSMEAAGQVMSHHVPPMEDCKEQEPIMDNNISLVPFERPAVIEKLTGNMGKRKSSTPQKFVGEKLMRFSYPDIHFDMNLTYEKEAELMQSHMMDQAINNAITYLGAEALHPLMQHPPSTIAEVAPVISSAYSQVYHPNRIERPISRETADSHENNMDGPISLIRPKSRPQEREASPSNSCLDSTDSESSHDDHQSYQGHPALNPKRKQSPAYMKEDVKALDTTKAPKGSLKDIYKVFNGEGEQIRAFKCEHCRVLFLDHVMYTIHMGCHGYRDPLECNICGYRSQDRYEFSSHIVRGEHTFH
T6 sequence (Q96SW2 whole entry): as the sequence (Q96SW2 whole entry) above
T6 sequence (Q16531 whole entry partner): as the sequence (Q16531 whole entry partner) above

Structure (SMILES) | substrate protein remaining % IKZF1 (IKZF1) | substrate protein remaining % GSPT1 (GSPT1) | substrate protein remaining % CK1α (CK1α) | substrate protein remaining % IKZF3 (IKZF3) | substrate protein remaining % WEE1 (WEE1) | substrate protein remaining % IKZF2 (IKZF2) | IKZF1 substrate protein remaining % (IKZF1) | GSPT1 substrate protein remaining % (GSPT1) | CK1α substrate protein remaining % (CK1α) | IKZF3 substrate protein remaining % (IKZF3) | WEE1 substrate protein remaining % (WEE1) | IKZF2 substrate protein remaining % (IKZF2)
Cc1cc(C2CCN(Cc3ccc4c(c3)C(=O)N(N3CCC(=O)NC3=O)C4=O)CC2)cs1 [GT-07421, 2-(2,4-dioxotetrahydropyrimidin-1(2H)-yl)-5-((4-(5-methylthiophen-3-yl)piperidin-1-yl)methyl)isoindoline-1,3-dione] | B (80%< substrate protein remaining %≤ 100%) | A (0% ≤ substrate protein remaining % ≤ 80%) | A (0% ≤ substrate protein remaining % ≤ 80%) | B (80%< substrate protein remaining %≤ 100%) | B (80%< substrate protein remaining %≤ 100%) | B (80%< substrate protein remaining %≤ 100%) | – | – | – | – | – | –
O=C1CCN(N2C(=O)c3ccc(CN4CC5CC(C4)N5c4cccc(Cl)c4Cl)cc3C2=O)C(=O)N1 [GT-07434, 5-((6-(2,3-dichlorophenyl)-3,6-diazabicyclo[3.1.1]heptan-3-yl)methyl)-2-(2,4-dioxotetrahydropyrimidin-1(2H)-yl)isoindoline-1,3-dione] | B (80%< substrate protein remaining %≤ 100%) | B (80%< substrate protein remaining %≤ 100%) | A (0% ≤ substrate protein remaining % ≤ 80%) | B (80%< substrate protein remaining %≤ 100%) | B (80%< substrate protein remaining %≤ 100%) | B (80%< substrate protein remaining %≤ 100%) | – | – | – | – | – | –
O=C1CCN(N2C(=O)c3ccc(CN4CCC(Nc5ccccc5-c5ccc(Cl)cc5)CC4)cc3C2=O)C(=O)N1 [GT-05179, 5-((4-((4'-chloro-[1,1'-biphenyl]-2-yl)amino)piperidin-1-yl)methyl)-2-(2,4-dioxotetrahydropyrimidin-1(2H)-yl)isoindoline-1,3-dione] | – | – | – | – | – | – | B ("B" is defined as 80%< substrate protein remaining %≤ 100%) | B ("B" is defined as 80%< substrate protein remaining %≤ 100%) | B ("B" is defined as 80%< substrate protein remaining %≤ 100%) | B ("B" is defined as 80%< substrate protein remaining %≤ 100%) | A ("A" is defined as 0% ≤ substrate protein remaining % ≤ 80%) | B ("B" is defined as 80%< substrate protein remaining %≤ 100%)
O=C1CCN(N2C(=O)c3ccc(CN4CCC(c5ccnc6cc(F)ccc56)CC4)cc3C2=O)C(=O)N1 [GT-07689, 2-(2,4-dioxotetrahydropyrimidin-1(2H)-yl)-5-((4-(7-fluoroquinolin-4-yl)piperidin-1-yl)methyl)isoindoline-1,3-dione] | B (80%< substrate protein remaining %≤ 100%) | A (0% ≤ substrate protein remaining % ≤ 80%) | A (0% ≤ substrate protein remaining % ≤ 80%) | B (80%< substrate protein remaining %≤ 100%) | B (80%< substrate protein remaining %≤ 100%) | B (80%< substrate protein remaining %≤ 100%) | – | – | – | – | – | –
CC1CN(Cc2ccc3c(c2)C(=O)N(N2CCC(=O)NC2=O)C3=O)CC(C)N1C(c1ccccc1)c1ccccc1 (stereo not drawn) [GT-06430, 5-((4-benzhydryl-3,5-dimethylpiperazin-1-yl)methyl)-2-(2,4-dioxotetrahydropyrimidin-1(2H)-yl)isoindoline-1,3-dione] | – | – | – | – | – | – | A ("A" is defined as 0% ≤ substrate protein remaining % ≤ 80%) | A ("A" is defined as 0% ≤ substrate protein remaining % ≤ 80%) | B ("B" is defined as 80%< substrate protein remaining %≤ 100%) | A ("A" is defined as 0% ≤ substrate protein remaining % ≤ 80%) | A ("A" is defined as 0% ≤ substrate protein remaining % ≤ 80%) | B ("B" is defined as 80%< substrate protein remaining %≤ 100%)
O=C1CCN(N2C(=O)c3ccc(CN4CCC(c5cccc6cnccc56)CC4)cc3C2=O)C(=O)N1 [GT-07688, 2-(2,4-dioxotetrahydropyrimidin-1(2H)-yl)-5-((4-(isoquinolin-5-yl)piperidin-1-yl)methyl)isoindoline-1,3-dione] | B (80%< substrate protein remaining %≤ 100%) | A (0% ≤ substrate protein remaining % ≤ 80%) | B (80%< substrate protein remaining %≤ 100%) | B (80%< substrate protein remaining %≤ 100%) | B (80%< substrate protein remaining %≤ 100%) | B (80%< substrate protein remaining %≤ 100%) | – | – | – | – | – | –
O=C1CCN(N2C(=O)c3ccc(CN4CC(c5ccnc6cc(F)ccc56)C4)cc3C2=O)C(=O)N1 [GT-07718, 2-(2,4-dioxotetrahydropyrimidin-1(2H)-yl)-5-((3-(7-fluoroquinolin-4-yl)azetidin-1-yl)methyl)isoindoline-1,3-dione] | B (80%< substrate protein remaining %≤ 100%) | A (0% ≤ substrate protein remaining % ≤ 80%) | A (0% ≤ substrate protein remaining % ≤ 80%) | A (0% ≤ substrate protein remaining % ≤ 80%) | B (80%< substrate protein remaining %≤ 100%) | B (80%< substrate protein remaining %≤ 100%) | – | – | – | – | – | –
O=C1CCN(N2C(=O)c3ccc(CN4CCN(c5cccc(F)c5)CC4)cc3C2=O)C(=O)N1 [GT-06724, 2-(2,4-dioxotetrahydropyrimidin-1(2H)-yl)-5-((4-(3-fluorophenyl)piperazin-1-yl)methyl)isoindoline-1,3-dione] | – | – | – | – | – | – | A ("A" is defined as 0% ≤ substrate protein remaining % ≤ 80%) | B ("B" is defined as 80%< substrate protein remaining %≤ 100%) | B ("B" is defined as 80%< substrate protein remaining %≤ 100%) | B ("B" is defined as 80%< substrate protein remaining %≤ 100%) | A ("A" is defined as 0% ≤ substrate protein remaining % ≤ 80%) | B ("B" is defined as 80%< substrate protein remaining %≤ 100%)
Cc1cccc(N2CCN(Cc3ccc4c(c3)CN(N3CCC(=O)NC3=O)C4=O)CC2)n1 [GT-05125, 1-(5-((4-(6-methylpyridin-2-yl)piperazin-1-yl)methyl)-1-oxoisoindolin-2-yl)dihydropyrimidine-2,4(1H,3H)-dione] | – | – | – | – | – | – | A ("A" is defined as 0% ≤ substrate protein remaining % ≤ 80%) | A ("A" is defined as 0% ≤ substrate protein remaining % ≤ 80%) | A ("A" is defined as 0% ≤ substrate protein remaining % ≤ 80%) | A ("A" is defined as 0% ≤ substrate protein remaining % ≤ 80%) | A ("A" is defined as 0% ≤ substrate protein remaining % ≤ 80%) | B ("B" is defined as 80%< substrate protein remaining %≤ 100%)
O=C1CCN(N2C(=O)c3ccc(CN4CCN(c5c(F)cccc5F)CC4)cc3C2=O)C(=O)N1 [GT-06796, 5-((4-(2,6-difluorophenyl)piperazin-1-yl)methyl)-2-(2,4-dioxotetrahydropyrimidin-1(2H)-yl)isoindoline-1,3-dione] | – | – | – | – | – | – | B ("B" is defined as 80%< substrate protein remaining %≤ 100%) | B ("B" is defined as 80%< substrate protein remaining %≤ 100%) | B ("B" is defined as 80%< substrate protein remaining %≤ 100%) | B ("B" is defined as 80%< substrate protein remaining %≤ 100%) | A ("A" is defined as 0% ≤ substrate protein remaining % ≤ 80%) | B ("B" is defined as 80%< substrate protein remaining %≤ 100%)
Cc1ccc(Cl)cc1N1CCN(Cc2ccc3c(c2)CN(N2CCC(=O)NC2=O)C3=O)CC1 [GT-06883, 1-(5-((4-(5-chloro-2-methylphenyl)piperazin-1-yl)methyl)-1-oxoisoindolin-2-yl)dihydropyrimidine-2,4(1H,3H)-dione] | – | – | – | – | – | – | A ("A" is defined as 0% ≤ substrate protein remaining % ≤ 80%) | A ("A" is defined as 0% ≤ substrate protein remaining % ≤ 80%) | B ("B" is defined as 80%< substrate protein remaining %≤ 100%) | B ("B" is defined as 80%< substrate protein remaining %≤ 100%) | A ("A" is defined as 0% ≤ substrate protein remaining % ≤ 80%) | B ("B" is defined as 80%< substrate protein remaining %≤ 100%)
